{"source": "patent US20180334453A1", "about": "“ISOINDOLINE DERIVATIVES” (VIIV HEALTHCARE UK LIMITED, priority 2015, published 2018)", "test_system": "HIV", "assay": "MT4 assay (anti-HIV activity)", "format": "cell-based", "settings": "HTLV-1 transformed cell line MT-4; luciferase activity measured 96 hours later (cell titer glo); 10 point dose response", "description": "Antiviral HIV activity and cytotoxicity values for compounds of the invention from Table 1 were measured in parallel in the HTLV-1 transformed cell line MT-4 based on the method previously described (Hazen et al., 2007, In vitro antiviral activity of the novel, tyrosyl-based human immunodeficiency virus (HIV) type 1 protease inhibitor brecanavir (GW640385) in combination with other antiretrovirals and against a panel of protease inhibitor-resistant HIV (Hazen et al., “In vitro antiviral activity of the novel, tyrosyl-based human immunodeficiency virus (HIV) type 1 protease inhibitor brecanavir (GW640385) in combination with other antiretrovirals and against a panel of protease inhibitor-resistant HIV”, Antimicrob. Agents Chemother. 2007, 51: 3147-3154; and Pauwels et al., “Sensitive and rapid assay on MT-4 cells for the detection of antiviral compounds against the AIDS virus”, J. of Virological Methods 1987, 16: 171-185).\nLuciferase activity was measured 96 hours later by adding a cell titer glo (Promega, Madison, Wis.). Percent inhibition of cell protection data was plotted relative to no compound control. Under the same condition, cytotoxicity of the compounds was determined using cell titer Glo™ (Promega, Madison, Wis.). IC50 s were determined from a 10 point dose response curve using 3-4-fold serial dilution for each compound, which spans a concentration range >1000 fold.\nThese values are plotted against the molar compound concentrations using the standard four parameter logistic equation:\ny=((Vmax*x̂n)/(K̂n+x̂n))+Y2\nY2=minimum y n=slope factor\nVmax=maximum y x=compound concentration [M]", "data": [{"smiles": "Cc1c(-c2c([C@H](OC(C)(C)C)C(=O)O)c(C(F)(F)F)c3c(c2C(F)(F)F)CN(C(=O)c2cccc(F)c2)C3)cc(F)c2c1CCCO2", "note": "(atropisomer, axis not shown; (M)) [Example 4, (2S)(M)-2-(tert-butoxy)-2-(6-(8-fluoro-5-methylchroman-6-yl)-2-(3-fluorobenzoyl)-4,7-bisarifluoromethasoindolin-5-yl)acetic Acid]", "values": [{"measurement": "IC50", "value": 4, "unit": "nM"}]}, {"smiles": "Cc1ccc(-c2c([C@H](OC(C)(C)C)C(=O)O)c(C(F)(F)F)c3c(c2C(F)(F)F)CN(C(=O)OCc2ccccc2)C3)cc1", "note": "[Example 2, (S)-2-(2-((benzyloxy)carbonyI)-6-(p-tolyl)-4,7-bis(trifluoromethyl)isoindolin-5-yl)-2-(tert-butoxy)acetic Acid]", "values": [{"measurement": "IC50", "value": 4400, "unit": "nM"}]}, {"smiles": "Cc1ccc(-c2c([C@H](OC(C)(C)C)C(=O)O)c(C(F)(F)F)c3c(c2C(F)(F)F)CN(C(=O)c2cccc(F)c2)C3)cc1", "note": "[Example 3]", "values": [{"measurement": "IC50", "value": 5, "unit": "nM"}]}, {"smiles": "CCO[C@H](C(=O)O)c1c(C)c2c(c(C)c1-c1cc(F)c3c(c1C)CCCO3)CN(C(=O)c1cccc(F)c1)C2", "note": "(atropisomer, axis not shown; (M)) [Example 1, (2S)(M)-2-ethoxy-2-((R)-6-(8-fluoro-5-methylchroman-6-yl)-2-(3-fluorobenzoyl)-4,7-dimethylisoindolin-5-yl)acetic Acid]", "values": [{"measurement": "IC50", "value": 145, "unit": "nM"}]}]}
